Test results as given in patent publication US8722910B2, “Diyne compositions” (Evolva AG, priority 2009, dated 2014).
≈ marks a conversion by molar mass, not a printed value. Read-outs that look alike come from different tables or passages of the source.

Experiments:
[1] = tested on: Enterobacter faecalis 29212; test: In vitro Antibacterial Activity; assay type: cell-based
Escherichia coli 700 = test: In vitro Antibacterial Activity; assay type: cell-based
B. dermatitidis = test: Susceptibility of clinical dimorphic fungi (MIC); assay type: cell-based; conditions: Blastomyces dermatitidis; B. dermatitidis (n = 30); CLSI M38-A2; 50% growth reduction; MIC read at 96 h
Coccidioides spp. = test: microbe, parasite or virus in culture; assay type: cell-based; conditions: Coccidioides, 48 h
C. krusei [2] = test: Susceptibility of clinical isolates (MIC, broth dilution); assay type: cell-based; conditions: Pichia kudriavzevii; C. krusei (n = 27); M27-A3, 24 hrs; read at 50% inhibition (potassium salt, Voriconazole), 100% (Amphotericin), MEC (Caspofungin); read-out: MIC90
Protocol: (§1) The efficacy of compound IV″ was investigated on 563 clinical isolates of 33 human fungal pathogens. […] For species with n≧10, the MIC90 (MIC, minimal inhibitory concentration) is given as ng/ml. For species with n≦10, the MIC range is given as ng/ml. 24 h and 48 h reads are indicated (Table 1).
(§2) The in vitro efficacy of antifungal compounds is determined in susceptibility assays, which are indicative for the spectrum and potency of a compound. Susceptibilities are reported as minimal inhibitory concentrations (MIC, as ng/ml or μg/ml) required to inhibit growth to a defined degree compared to the drug free control. The MIC90 defines the MIC required to inhibit growth for ≧90% of the strains of a population tested.
(§3) The MIC90 was calculated for the indicated species.

C. parapsilosis [3] = test: as above; assay type: cell-based; conditions: Lodderomyces parapsilosis
Protocol: as §1, §2, §3

C. dubliniensis = test: as above; assay type: cell-based; conditions: Candida dubliniensis; C. dubliniensis (n = 25); M27-A3, 24 hrs; read at 50% inhibition (potassium salt, Voriconazole), 100% (Amphotericin), MEC (Caspofungin); read-out: MIC90
Protocol: as §1, §2, §3

C. glabrata [4] = test: as above; assay type: cell-based; conditions: Nakaseomyces glabratus
Protocol: as §1, §2, §3

C. tropicalis = test: as above; assay type: cell-based; conditions: Candida tropicalis; C. tropicalis (n = 35); M27-A3, 24 hrs; read at 50% inhibition (potassium salt, Voriconazole), 100% (Amphotericin), MEC (Caspofungin); read-out: MIC90
Protocol: as §1, §2, §3

C. lusitaniae [5] = test: as above; assay type: cell-based; conditions: Clavispora lusitaniae; C. lusitaniae (n = 24); M27-A3, 24 hrs; read at 50% inhibition (potassium salt, Voriconazole), 100% (Amphotericin), MEC (Caspofungin); read-out: MIC90
Protocol: as §1, §2, §3

H. capsulatum = test: microbe, parasite or virus in culture; assay type: cell-based; conditions: Histoplasma capsulatum, 120 h
[6] = tested on: C. glabrata, Fluconazole, Voriconazole, Itraconazole and/or Caspofungin resistant isolates; test: Susceptibility of resistant clinical isolates (MIC, broth dilution); assay type: cell-based; conditions: Nakaseomyces glabratus; C. glabrata resistant (n = 21): isolates resistant to Fluconazole, Itraconazole, Voriconazole and Caspofungin; read-out: MIC90
Protocol: as §1, §3

C. albicans [7] = test: Fatty acid competition (antagonism) in 96-well plates; conditions: 48 h
[8] = Stability of diyne salts on storage (HPLC content); assay type: physicochemical
Protocol: Potassium (Z)-14-(furan-2-yl)tetradeca-9-en-11,13-diynoate was kept as a crystalline solid for 6 month at 2-8° C. The content of potassium (Z)-14-(furan-2-yl)tetradeca-9-en-11,13-diynoate was determined by HPLC against a reference sample kept at −20° C. After 6 months of storage characteristics such as colour, water content, XRPD profile, of the solid had not changed and it was still a beige solid. […] Also no change in the impurity profile was observed after 6 months storage.
Potassium (Z)-14-(furan-2-yl)tetradeca-9-en-11,13-diynoate was also kept as a crystalline solid for 6 month at 25° C., 60% RH. Analysis was performed as described above. After 6 months of storage characteristics of the solid has not changed and it was still a beige solid. […] Also no change in the impurity profile was observed after 6 months storage.
Potassium (Z)-14-(furan-2-yl)tetradeca-9-en-11,13-diynoate was also kept as a crystalline solid for 6 month at 40° C., 75% RH. Analysis was performed as described above. After 6 months of storage the appearance of the solid had changed to a brown solid. Furthermore, a decrease in the content of potassium (Z)-14-(furan-2-yl)tetradeca-9-en-11,13-diynoate to 96% was observed as analysed by HPLC.
Sodium (Z)-14-(furan-2-yl)tetradeca-9-en-11,13-diynoate was kept as an amorphous solid at room temperature. […] Furthermore the salt was dissolved in an aqueous solution and already after few days the content of sodium (Z)-14-(furan-2-yl)tetradeca-9-en-11,13-diynoate was reduced by 35%, thus proving strong instability of the amorphous salt form.

C. albicans [9] = test: Rat model of systemic candidiasis, single oral administration, kidney burden; assay type: in vivo; conditions: rats
C. albicans [10] = test: Rat model of systemic candidiasis, single intravenous infusion, liver burden; assay type: in vivo; conditions: rats
C. parapsilosis [11] = test: In vitro antifungal activity vs. yeasts (MIC/MFC); assay type: cell-based; conditions: Lodderomyces parapsilosis; C. parapsilosis (n = 2); 90% inhibition endpoint
C. lusitaniae [12] = test: In vitro antifungal activity vs. yeasts (MIC/MFC); assay type: cell-based; conditions: Clavispora lusitaniae
C. guilliermondii = test: In vitro antifungal activity vs. yeasts (MIC/MFC); assay type: cell-based; conditions: Meyerozyma guilliermondii; C. guilliermondii (n = 1); 90% inhibition endpoint
C. glabrata [13] = test: In vitro antifungal activity vs. yeasts (MIC/MFC); assay type: cell-based; conditions: Nakaseomyces glabratus; C. glabrata (n = 1); 90% inhibition endpoint
Malassezia furfur = test: In vitro antifungal activity vs. yeasts (MIC/MFC); assay type: cell-based; conditions: Malassezia furfur
C. krusei [14] = test: In vitro antifungal activity vs. yeasts (MIC/MFC); assay type: cell-based; conditions: Pichia kudriavzevii; C. krusei (n = 1); 90% inhibition endpoint
all Candida strains = test: MIC range over all Candida strains tested; assay type: cell-based; conditions: Table 13 strains
Candida albicans = test: In vitro antifungal activity vs. yeasts (MIC/MFC); assay type: cell-based; conditions: Candida albicans (n = 8); 90% inhibition endpoint
C. albicans [15] = test: Effect on the morphology of growing Candida albicans cultures; assay type: cell-based; conditions: inhibiting concentrations
ergosterol biosynthesis = test: 13C-acetate incorporation into ergosterol; assay type: cell-based, Candida albicans; conditions: drug at about its MIC, added after the first 15 minutes
C. lipolytica = test: In vitro antifungal activity vs. yeasts (MIC/MFC); assay type: cell-based; conditions: Yarrowia lipolytica
A. niger = test: Susceptibility of clinical Aspergillus isolates (MIC); assay type: cell-based; conditions: A. niger (n = 6), CLSI M38-A2, 50% growth inhibition, 24 h, read-out: MIC50
Protocol: as §1
(§4) Susceptibilities were determined according to the CLSI reference method M38-A2.

A. terreus = test: as above; assay type: cell-based; conditions: Aspergillus terreus; A. terreus (n = 5); CLSI M38-A2; 50% growth inhibition; 24 h; read-out: MIC50
Protocol: as §1, §4

A. fumigatus = test: as above; assay type: cell-based; conditions: Aspergillus fumigatus; A. fumigatus (n = 20); CLSI M38-A2; 50% growth inhibition; 24 h; read-out: MIC50
Protocol: as §1, §4

A. versicolor = test: as above; assay type: cell-based; conditions: Aspergillus versicolor; A. versicolor (n = 3); CLSI M38-A2; 50% growth inhibition; 24 h; read-out: MIC50
Protocol: as §1, §4

A. nidulans = test: as above; assay type: cell-based; conditions: 24 h
Protocol: as §1, §4

A. flavus = test: as above; assay type: cell-based; conditions: Aspergillus flavus; A. flavus (n = 2); CLSI M38-A2; 50% growth inhibition; 24 h; read-out: MIC50
Protocol: as §1, §4

C. albicans [16] = test: Susceptibility of clinical isolates (MIC, broth dilution); assay type: cell-based; conditions: Candida albicans; C. albicans (n = 20); M27-A3, 24 hrs; read at 50% inhibition (potassium salt, Voriconazole), 100% (Amphotericin), MEC (Caspofungin); read-out: MIC90
Protocol: as §1, §2, §3

[17] = tested on: Staphylococcus aureus 29213; test: In vitro Antibacterial Activity; assay type: cell-based

CC1(C)S[C@@H]2[C@H](NC(=O)[C@H](N)c3ccccc3)C(=O)N2[C@H]1C(=O)O [Ampicillin, reference compound]
MIC90 [1]: 0.78 µg/mL (≈ 2.23 µM) | MIC90 (Escherichia coli 700): 3.12 µg/mL (≈ 8.94 µM)

CC[C@H](C)C[C@H](C)CCCCCCCCC(=O)N[C@H]1C[C@@H](O)[C@@H](NCCN)NC(=O)[C@@H]2[C@@H](O)CCN2C(=O)[C@H]([C@H](O)CCN)NC(=O)[C@H]([C@H](O)[C@@H](O)c2ccc(O)cc2)NC(=O)[C@@H]2C[C@@H](O)CN2C(=O)[C@H]([C@@H](C)O)NC1=O [Caspofungin]
MIC90 (B. dermatitidis): 4 µg/mL (≈ 3.66 µM) | MIC90 (Coccidioides spp.): 0.5 µg/mL (≈ 0.457 µM) | MIC90 (C. krusei [2]): 2 µg/mL | MIC90 (C. parapsilosis [3]; C. parapsilosis (n = 37), M27-A3, 24 hrs, read at 50% inhibition (potassium salt, Voriconazole), 100% (Amphotericin), MEC (Caspofungin), read-out: MIC90): 8 µg/mL | MIC90 (C. dubliniensis): 1 µg/mL | MIC90 (C. glabrata [4]; C. glabrata (n = 25), M27-A3, 24 hrs, read at 50% inhibition (potassium salt, Voriconazole), 100% (Amphotericin), MEC (Caspofungin), read-out: MIC90): 2 µg/mL | MIC90 (C. tropicalis): 1 µg/mL | MIC90 (C. lusitaniae [5]): 2 µg/mL | MIC90 (H. capsulatum): 2 µg/mL (≈ 1.83 µM) | MIC90 [6]: 2 µg/mL (≈ 1.83 µM) | effect of oleic acid / stearic acid on susceptibility (C. albicans [7]): oleic acid did not decrease the susceptibility

O=C([O-])CCCCCCC/C=C\C#CC#Cc1ccco1.[Na+] [Compound V″, sodium (Z)-14-(furan-2-yl)tetradeca-9-en-11,13-diynoate]
appearance after storage ([8]; amorphous solid at room temperature, short term storage): the colour darkened | reduction of content in aqueous solution ([8]; aqueous solution, after few days): 35% | decrease of kidney fungal burden (CFU per gram tissue) (C. albicans [9]; single oral dose 17 mg/kg, 6 h): 57% | decrease of liver fungal burden (CFU per gram tissue) (C. albicans [10]; single intravenous infusion 12 mg/kg, 24 h): 93%

OC(Cn1cncn1)(Cn1cncn1)c1ccc(F)cc1F [Fluconazole, reference compound]
MIC (C. parapsilosis [11]): 1 µg/mL (≈ 3.27 µM) | MIC (C. lusitaniae [12]): 0.125 µg/mL (≈ 0.408 µM) | MIC (C. guilliermondii): 4 µg/mL (≈ 13.1 µM) | MIC (C. glabrata [13]): 2 µg/mL (≈ 6.53 µM) | reduction of tissue burden (cfu/g tissue), comparator (C. albicans [9]; vs vehicle at 24 hours, dose not given): 90% | MIC (Malassezia furfur): 0.125 µg/mL (≈ 0.408 µM) | MIC (C. krusei [14]): 16 µg/mL (≈ 52.2 µM) | MIC range for all Candida strains (all Candida strains): 0.125 to 16 µg/mL | MIC (Candida albicans): 1 µg/mL (≈ 3.27 µM) | reduction of tissue burden (cfu/g tissue), comparator (C. albicans [10]; liver, vs vehicle at 24 hours, dose not given): 93% | effect on hyphal tube formation (C. albicans [15]; microscopy): did not affect hyphal tube formation | effect on cell growth (C. albicans [15]; microscopy and MTT): permitted fungal growth (albeit at a reduced rate) | net biosynthesis of ergosterol (13C-acetate incorporation) (ergosterol biosynthesis): inhibited the incorporation of acetate into ergosterol | MIC (C. lipolytica): 0.125 µg/mL (≈ 0.408 µM)

C[C@@H](c1ncncc1F)[C@](O)(Cn1cncn1)c1ccc(F)cc1F [Voriconazole]
MIC90 (B. dermatitidis): 0.25 µg/mL (≈ 0.716 µM) | MIC90 (Coccidioides spp.): 0.125 µg/mL (≈ 0.358 µM) | MIC50 (A. niger): 1 µg/mL (≈ 2.86 µM) | MIC50 (A. terreus): 0.25 µg/mL (≈ 0.716 µM) | MIC50 (A. fumigatus): 0.25 µg/mL (≈ 0.716 µM) | MIC50 (A. versicolor): 0.25 µg/mL (≈ 0.716 µM) | MIC50 (A. nidulans): 0.125 µg/mL (≈ 0.358 µM) | MIC50 (A. flavus): 0.5 µg/mL (≈ 1.43 µM) | MIC90 (C. krusei [2]): 0.5 µg/mL | MIC90 (C. albicans [16]): 0.03 µg/mL | MIC90 (C. parapsilosis [3]; 24 h): 0.125 µg/mL (≈ 0.358 µM) | MIC90 (C. dubliniensis): 0.016 µg/mL | MIC90 (C. glabrata [4]; 24 h): 0.125 µg/mL (≈ 0.358 µM) | MIC90 (C. tropicalis): 0.03 µg/mL | MIC90 (C. lusitaniae [5]): 0.03 µg/mL | MIC90 (H. capsulatum): 0.125 µg/mL (≈ 0.358 µM) | effect of oleic acid / stearic acid on susceptibility (C. albicans [7]): oleic acid did not decrease the susceptibility

Gentamicin [reference compound]
MIC90 [17]: Gentamicin—0.78 μg/ml
